Source: PubChem BioAssay (NCI)
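Tested at 5 concentrations; 48 h exposure; 96-well plates; endpoints linearly interpolated, else capped at highest concentration. The concentration for 50% growth inhibition is given as GI50. TGI denotes the concentration required for complete inhibition of growth.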

Assays:
Experiment in all cases: NCI-60 cell line screen, 48 h
HL-60(TB) leukemia = system: HL-60(TB) leukemia
U251 CNS = system: U251 CNS
MALME-3M melanoma = system: MALME-3M melanoma
OVCAR-3 ovarian = system: OVCAR-3 ovarian
MDA-N = system: MDA-N
SR leukemia = system: SR leukemia
SW-620 colon = system: SW-620 colon
TK-10 renal = system: TK-10 renal
KM12 colon = system: KM12 colon
OVCAR-5 ovarian = system: OVCAR-5 ovarian
OVCAR-4 ovarian = system: OVCAR-4 ovarian
NCI-H226 lung = system: NCI-H226 lung
MOLT-4 leukemia = system: MOLT-4 leukemia
COLO 205 colon = system: COLO 205 colon
K-562 leukemia = system: K-562 leukemia
OVCAR-8 ovarian = system: OVCAR-8 ovarian
HOP-92 NSCLC = system: HOP-92 NSCLC
786-0 renal = system: 786-0 renal
M14 melanoma = system: M14 melanoma
LOX IMVI melanoma = system: LOX IMVI melanoma
HCT-15 colon = system: HCT-15 colon
EKVX NSCLC = system: EKVX NSCLC
NCI/ADR-RES ovarian = system: NCI/ADR-RES ovarian
A549 NSCLC = system: A549 NSCLC
MCF7 breast = system: MCF7 breast
SK-MEL-2 melanoma = system: SK-MEL-2 melanoma
SNB-19 CNS = system: SNB-19 CNS
HCT-116 colon = system: HCT-116 colon
NCI-H522 lung = system: NCI-H522 lung
NCI-H23 lung = system: NCI-H23 lung
SNB-75 CNS = system: SNB-75 CNS
DU-145 prostate = system: DU-145 prostate
ACHN renal = system: ACHN renal
SF-295 CNS = system: SF-295 CNS
MDA-MB-435 = system: MDA-MB-435
MDA-MB-231 breast = system: MDA-MB-231 breast
UO-31 renal = system: UO-31 renal
SK-MEL-5 melanoma = system: SK-MEL-5 melanoma
SK-OV-3 ovarian = system: SK-OV-3 ovarian
RPMI-8226 leukemia = system: RPMI-8226 leukemia
CCRF-CEM leukemia = system: CCRF-CEM leukemia
SF-268 CNS = system: SF-268 CNS
SN12C renal = system: SN12C renal
HOP-62 NSCLC = system: HOP-62 NSCLC
HS 578T breast = system: HS 578T breast
IGROV1 ovarian = system: IGROV1 ovarian
PC-3 prostate = system: PC-3 prostate
UACC-62 melanoma = system: UACC-62 melanoma
A498 renal = system: A498 renal
RXF 393 renal = system: RXF 393 renal
BT-549 breast = system: BT-549 breast
HCC-2998 colon = system: HCC-2998 colon
NCI-H460 lung = system: NCI-H460 lung
T-47D breast = system: T-47D breast
UACC-257 melanoma = system: UACC-257 melanoma
CAKI-1 renal = system: CAKI-1 renal
SK-MEL-28 melanoma = system: SK-MEL-28 melanoma
SF-539 CNS = system: SF-539 CNS
HT29 colon = system: HT29 colon

SMILES: CSC1=N/C(=C\c2ccc(C)cc2)C(=O)N1CN1CCOCC1
- TGI (HL-60(TB) leukemia): > 100 µM
- TGI (U251 CNS): > 100 µM
- TGI (MALME-3M melanoma): > 100 µM
- TGI (OVCAR-3 ovarian): > 100 µM
- TGI (MDA-N): > 100 µM
- TGI (SR leukemia): > 100 µM
- TGI (SW-620 colon): > 100 µM
- TGI (TK-10 renal): > 100 µM
- TGI (KM12 colon): > 100 µM
- TGI (OVCAR-5 ovarian): > 100 µM
- TGI (OVCAR-4 ovarian): 32.9 µM
- TGI (NCI-H226 lung): > 100 µM
- TGI (MOLT-4 leukemia): > 100 µM
- TGI (COLO 205 colon): > 100 µM
- TGI (K-562 leukemia): > 100 µM
- TGI (OVCAR-8 ovarian): > 100 µM
- TGI (HOP-92 NSCLC): > 100 µM
- TGI (786-0 renal): > 100 µM
- TGI (M14 melanoma): > 100 µM
- TGI (LOX IMVI melanoma): > 100 µM
- TGI (HCT-15 colon): > 100 µM
- TGI (EKVX NSCLC): > 100 µM
- TGI (NCI/ADR-RES ovarian): > 100 µM
- TGI (A549 NSCLC): > 100 µM
- TGI (MCF7 breast): > 100 µM
- TGI (SK-MEL-2 melanoma): > 100 µM
- TGI (SNB-19 CNS): > 100 µM
- TGI (HCT-116 colon): > 100 µM
- TGI (NCI-H522 lung): > 100 µM
- TGI (NCI-H23 lung): > 100 µM
- TGI (SNB-75 CNS): > 100 µM
- TGI (DU-145 prostate): > 100 µM
- TGI (ACHN renal): > 100 µM
- TGI (SF-295 CNS): > 100 µM
- TGI (MDA-MB-435): > 100 µM
- TGI (MDA-MB-231 breast): > 100 µM
- TGI (UO-31 renal): > 100 µM
- TGI (SK-MEL-5 melanoma): > 100 µM
- TGI (SK-OV-3 ovarian): > 100 µM
- TGI (RPMI-8226 leukemia): > 100 µM
- TGI (CCRF-CEM leukemia): > 100 µM
- TGI (SF-268 CNS): > 100 µM
- TGI (SN12C renal): > 100 µM
- TGI (HOP-62 NSCLC): > 100 µM
- TGI (HS 578T breast): > 100 µM
- TGI (IGROV1 ovarian): > 100 µM
- TGI (PC-3 prostate): > 100 µM
- TGI (UACC-62 melanoma): > 100 µM
- TGI (A498 renal): > 100000 nM

SMILES: Cn1c(C(N)=O)cc2c1-c1nc(Nc3ccccc3)ncc1CCC2
- GI50 (HL-60(TB) leukemia): 6.77 µM
- TGI (HL-60(TB) leukemia): 49.7 µM
- GI50 (U251 CNS): 3.55 µM
- TGI (U251 CNS): > 100 µM
- GI50 (RXF 393 renal): 1440 nM
- TGI (RXF 393 renal): 5.34 µM
- GI50 (MALME-3M melanoma): 7.63 µM
- TGI (MALME-3M melanoma): 57 µM
- GI50 (BT-549 breast): 3.29 µM
- TGI (BT-549 breast): 27.8 µM
- GI50 (OVCAR-3 ovarian): 10.1 µM
- TGI (OVCAR-3 ovarian): 57.1 µM
- GI50 (SR leukemia): 4.47 µM
- TGI (SR leukemia): 33.1 µM
- GI50 (SW-620 colon): 6.31 µM
- TGI (SW-620 colon): 97.7 µM
- GI50 (TK-10 renal): 3.97 µM
- TGI (TK-10 renal): 52.3 µM
- GI50 (HCC-2998 colon): 10.3 µM
- TGI (HCC-2998 colon): 33.3 µM
- GI50 (NCI-H460 lung): 4.2 µM
- TGI (NCI-H460 lung): > 100 µM
- GI50 (T-47D breast): 7.12 µM
- TGI (T-47D breast): 37.4 µM
- GI50 (KM12 colon): 1480 nM
- TGI (KM12 colon): 18.3 µM
- GI50 (OVCAR-5 ovarian): 2540 nM
- TGI (OVCAR-5 ovarian): 25.1 µM
- GI50 (NCI-H226 lung): 902 nM
- TGI (NCI-H226 lung): 33.7 µM
- GI50 (UACC-257 melanoma): 19.7 µM
- TGI (UACC-257 melanoma): 88.7 µM
- GI50 (MOLT-4 leukemia): 4.21 µM
- TGI (MOLT-4 leukemia): 50.4 µM
- GI50 (COLO 205 colon): 4.77 µM
- TGI (COLO 205 colon): 17.7 µM
- GI50 (K-562 leukemia): 4.65 µM
- TGI (K-562 leukemia): > 100 µM
- GI50 (OVCAR-8 ovarian): 7.06 µM
- TGI (OVCAR-8 ovarian): 69.3 µM
- GI50 (HOP-92 NSCLC): 1470 nM
- TGI (HOP-92 NSCLC): 8.32 µM
- GI50 (786-0 renal): 4.55 µM
- TGI (786-0 renal): 34.5 µM
- GI50 (M14 melanoma): 4.73 µM
- TGI (M14 melanoma): 41.1 µM
- GI50 (LOX IMVI melanoma): 4.86 µM
- TGI (LOX IMVI melanoma): 24.8 µM
- GI50 (HCT-15 colon): 3.4 µM
- TGI (HCT-15 colon): 28.6 µM
- GI50 (NCI/ADR-RES ovarian): 6.3 µM
- TGI (NCI/ADR-RES ovarian): 49.8 µM
- GI50 (A549 NSCLC): 3.67 µM
- TGI (A549 NSCLC): 22 µM
- GI50 (MCF7 breast): 4.41 µM
- TGI (MCF7 breast): > 100 µM
- GI50 (CAKI-1 renal): 2110 nM
- TGI (CAKI-1 renal): 15.9 µM
- GI50 (SK-MEL-2 melanoma): 5.42 µM
- TGI (SK-MEL-2 melanoma): 23.1 µM
- GI50 (SNB-19 CNS): 11.5 µM
- TGI (SNB-19 CNS): > 100 µM
- GI50 (HCT-116 colon): 3.52 µM
- TGI (HCT-116 colon): 41.7 µM
- GI50 (NCI-H522 lung): 4.13 µM
- TGI (NCI-H522 lung): 22.7 µM
- GI50 (SK-MEL-28 melanoma): 8.74 µM
- TGI (SK-MEL-28 melanoma): 61.1 µM
- GI50 (NCI-H23 lung): 4.91 µM
- TGI (NCI-H23 lung): 32.9 µM
- GI50 (SNB-75 CNS): 1610 nM
- TGI (SNB-75 CNS): 8.35 µM
- GI50 (DU-145 prostate): 6.18 µM
- TGI (DU-145 prostate): 62.7 µM
- GI50 (ACHN renal): 3.61 µM
- TGI (ACHN renal): 50.5 µM
- GI50 (SF-295 CNS): 4.65 µM
- TGI (SF-295 CNS): > 100 µM
- GI50 (MDA-MB-435): 3.88 µM
- TGI (MDA-MB-435): > 100 µM
- GI50 (MDA-MB-231 breast): 5.59 µM
- TGI (MDA-MB-231 breast): > 100 µM
- GI50 (UO-31 renal): 1920 nM
- TGI (UO-31 renal): 14.3 µM
- GI50 (SK-MEL-5 melanoma): 11.4 µM
- TGI (SK-MEL-5 melanoma): 25.8 µM
- GI50 (SK-OV-3 ovarian): 3.51 µM
- TGI (SK-OV-3 ovarian): 20.8 µM
- GI50 (CCRF-CEM leukemia): 6.21 µM
- TGI (CCRF-CEM leukemia): > 100 µM
- GI50 (SF-268 CNS): 5.52 µM
- TGI (SF-268 CNS): > 100 µM
- GI50 (SN12C renal): 4.18 µM
- TGI (SN12C renal): > 100 µM
- GI50 (SF-539 CNS): 3.93 µM
- TGI (SF-539 CNS): 28 µM
- GI50 (HOP-62 NSCLC): 2960 nM
- TGI (HOP-62 NSCLC): 52.6 µM
- GI50 (HS 578T breast): 1970 nM
- TGI (HS 578T breast): 6.9 µM
- GI50 (IGROV1 ovarian): 3.87 µM
- TGI (IGROV1 ovarian): 24.2 µM
- GI50 (PC-3 prostate): 5.19 µM
- TGI (PC-3 prostate): 41.6 µM
- GI50 (UACC-62 melanoma): 3.92 µM
- TGI (UACC-62 melanoma): 17.7 µM
- GI50 (HT29 colon): 10.6 µM
- TGI (HT29 colon): 34.7 µM
- GI50 (A498 renal): 204 nM
- TGI (A498 renal): 955 nM
